The results in this text go back to article PMC1664607 (PLoS Medicine, 2006).

Several values for one entry are separate records, joined by “and”; a condition that tells them apart may be missing. Identical values can stand only once.

This test has as its system clinically isolated M. tuberculosis. Nature of the test: microbe, parasite or virus in culture. Format: cell-based.

As to `C[C@]1(COc2ccc(N3CCC(Oc4ccc(OC(F)(F)F)cc4)CC3)cc2)Cn2cc([N+](=O)[O-])nc2O1` [OPC-67683, (R)-2-methyl-6-nitro-2-(4-[4-(4-trifluoromethoxyphenoxy)piperidin-1-yl]phenoxymethyl}-2,3-dihydroimidazo[2,1-b]oxazole], the “Cross-resistance with the currently used anti-TB drugs” value is “no cross-resistance”; the MIC90 was 0.0134 µg/mL and 0.01221 µg/mL and 0.01279 µg/mL and 0.01341 µg/mL.
